From patent publication US10842793B2, “Inhibitors of the unconventional secretion of fibroblast growth factor 2 (FGF2) by tumor cells and uses thereof” (Universität Heidelberg, priority 2016, dated 2020)
Entries after “also recorded” stand apart in the source; their conditions may differ.

Key:
[1] = target: T1, Tec kinase mediated tyrosine phosphorylation of STAP1 (Homo sapiens, UniProt P42680); experiment: In vitro Tec kinase mediated tyrosine phosphorylation of STAP1; assay type: biochemical; conditions: 50 μM compound; FIGS. 7C and F
T1 construct: made in house; host or cells: Tec: SF9 insect cells (baculovirus); STAP1 purchased (Hölzel Diagnostika, Cat. # GWB-P0486E-100)
Description: FGF2 and STAP1 tyrosine phosphorylation as well as Tec kinase auto-phosphorylation were analyzed as described in the legend to FIG. 6 and in Experimental Procedures. In vitro phosphorylation experiments were conducted in the absence (1% DMSO mock control) and presence of the small molecule inhibitors (#6, #14, #21; 50 μM in 1% DMSO) and control compounds (#18, #19; 50 μM in 1% DMSO) introduced in FIGS. 4 and 5. A Western analysis was conducted using anti-phosphotyrosine antibodies (anti-pY-FGF2 for FGF2 and Tec as well as anti-pY-4G10 for STAP1). M=PageRuler Prestained Protein Ladder: 140, 115, 80, 65, 50, 40, 30, 25, 15, 10 kDa. Fluorescent secondary antibodies were used to detect and quantify antigens using the LI-COR Odyssey imaging platform. In panels D, E and F, following normalization based upon background signals detected in the absence of Tec kinase or ATP, the average of the signals detected under mock conditions was defined as 100% activity. Standard deviations are shown. A one-tailed and unpaired T-test was conducted to assess statistical significance (* p<0.05, ** p<0.01, *** p<0.001, **** p<0.0001). “NS” indicates absence of significant differences.
A Tec kinase in vitro phosphorylation assay was established to test the inhibitory potential and selectivity of the small molecule inhibitors reported in this study (FIGS. 6 and 7). […] Phosphorylation levels of GST-NΔ173 Tec (auto-phosphorylation), FGF2 and STAP1 were quantified by a Western analysis using polyclonal anti-phosphotyrosine antibodies raised against a FGF2-derived synthetic peptide containing a phosphorylated tyrosine residue (ANRpYLAMKED; SEQ ID NO: 1). […] Phosphorylation levels of STAP1 were monitored using a monoclonal anti-phosphotyrosine antibody (clone 4G10®, #05-321, Merck Millipore). Appropriate fluorescent secondary antibodies (goat anti-rabbit IgG conjugated with Alexa Fluor® 680, # A-21076, Life Technologies; goat anti-mouse IgG conjugated with Alexa Fluor® 680, # A-21057, Life Technologies) were used to quantify all antigens employing the LI-COR Odyssey infrared imaging platform. […]

[2] = tested on: CHO cells stably expressing FGF2-GFP; experiment: FGF2-GFP secretion by cell surface biotinylation; assay type: cell-based; conditions: 10, 25 and 50 μM; mock 0.5% DMSO = 100%
Description: A stable CHO cell line expressing an FGF2-GFP fusion protein in a doxycycline-dependent manner was used to quantify FGF2 transport to cell surfaces in the absence and presence of the small molecule inhibitors introduced in FIGS. 4, 5, 6 and 7. As detailed in Experimental Procedures, following cultivation of cells in the presence of compounds as indicated and induction of FGF2-GFP expression, proteins localized to the cell surface were biotinylated with a membrane-impermeable reagent. Following quenching of the biotinylation reagent, biotinylated proteins were purified using streptavidin beads. Following SDS-PAGE analyzing both the total lysate (input termed “cells”; 1.7%) and the biotinylated cell surface fraction (33%), a Western analysis was conducted to detect the secreted population of FGF2-GFP. Using appropriate fluorescent secondary antibodies, both FGF2-GFP and GAPDH (used as a control protein restricted to the intracellular space) were quantified using the LI-COR Odyssey imaging platform. FGF2-GFP secretion quantified under mock conditions (0.5% DMSO) was defined as 100% secretion efficiency. Standard deviations are shown from three independent experiments, each of which was conducted in two technical replicates. A two-tailed and unpaired T-test was conducted to assess statistical significance (* p<0.05, ** p<0.01, *** p<0.001, **** p<0.0001). “NS” indicates absence of significant differences.
Secreted FGF2 remains bound to heparan sulfates on cell surfaces without release into cell culture supernatants. This allows for biochemical detection of the secreted population based upon cell surface biotinylation experiments. CHO cells stably expressing FGF2-GFP in a doxycycline-dependent manner were cultivated in the presence of compounds #6, #14, #21, #18 and #19 (see FIGS. 4 and 5) at 10 μM, 25 μM and 50 μM in 0.5% DMSO (final concentration) as well as under mock conditions. […] Using appropriate fluorescent secondary antibodies, FGF2-GFP and GAPDH were quantified using the LI-COR Odyssey imaging platform. […]

T1 sequence (P42680 174-631): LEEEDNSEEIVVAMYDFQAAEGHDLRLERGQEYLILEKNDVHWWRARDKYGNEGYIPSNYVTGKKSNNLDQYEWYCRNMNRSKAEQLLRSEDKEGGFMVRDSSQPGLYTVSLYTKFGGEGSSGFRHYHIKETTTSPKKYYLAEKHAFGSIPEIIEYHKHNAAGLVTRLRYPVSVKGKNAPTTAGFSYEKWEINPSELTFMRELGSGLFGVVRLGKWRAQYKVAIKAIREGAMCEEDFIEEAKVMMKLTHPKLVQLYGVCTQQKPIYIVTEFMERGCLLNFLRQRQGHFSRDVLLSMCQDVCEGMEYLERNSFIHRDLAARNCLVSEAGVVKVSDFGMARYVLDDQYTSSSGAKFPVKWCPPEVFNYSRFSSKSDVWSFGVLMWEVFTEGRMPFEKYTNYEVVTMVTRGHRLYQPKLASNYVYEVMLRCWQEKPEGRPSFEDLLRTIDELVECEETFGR

SMILES	effect on tyrosine phosphorylation of STAP1 [1]	inhibition of FGF2 secretion from cells [2]
COC(=O)c1c(C)[nH]c(C(=O)OCc2cc(=O)n3c(C)cccc3n2)c1C [compound #6]	neither auto-phosphorylation of NΔ173 Tec nor tyrosine phosphorylation of STAP1 is affected	inhibition was observed in a dose-dependent manner
CC(=O)c1c(C)[nH]c(C(=O)OCc2cc(=O)n3cc(Br)ccc3n2)c1C [compound #14]	neither auto-phosphorylation of NΔ173 Tec nor tyrosine phosphorylation of STAP1 is affected	inhibition was observed in a dose-dependent manner
CC(=O)c1c(C)[nH]c(C(=O)CSc2nc3cc(Cl)cnc3[nH]2)c1C [compound #21]	neither auto-phosphorylation of NΔ173 Tec nor tyrosine phosphorylation of STAP1 is affected	inhibition was stronger at 10 μM compared to higher concentrations; also recorded: robust inhibition at 10 μM and somewhat less efficient inhibition at 25 and 50 μM
